Assay results as given in ChEMBL document CHEMBL4346705, “(±)-trans-Dihydronarciclasine and (±)-trans-dihydrolycoricidine analogues modified in their ring A: Evaluation of their anticancer activity and a SAR study” (2019).

Tests used:
Format in all cases: functional
CCRF-CEM = assay: Cytotoxicity against human CCRF-CEM cells assessed as growth inhibition after 48 hrs by sulforhodamine B assay
K562 = assay: Cytotoxicity against human K562 cells assessed as growth inhibition after 48 hrs by sulforhodamine B assay; conditions: K562, 48 h; for CC50: read-out: LC50 (the source's name)
RPMI-8226 = assay: Cytotoxicity against human RPMI8226 cells assessed as growth inhibition after 48 hrs by sulforhodamine B assay; conditions: RPMI-8226, 48 h
SR = assay: Cytotoxicity against human SR cells assessed as growth inhibition after 48 hrs by sulforhodamine B assay; conditions: for CC50: read-out: LC50 (the source's name)
A549 = assay: Cytotoxicity against human A549 cells assessed as growth inhibition after 48 hrs by sulforhodamine B assay; conditions: A549, 48 h; for CC50: read-out: LC50 (the source's name)
HOP-62 = assay: Cytotoxicity against human HOP62 cells assessed as growth inhibition after 48 hrs by sulforhodamine B assay; conditions: HOP-62, 48 h; for CC50: read-out: LC50 (the source's name)
NCI-H226 = assay: Cytotoxicity against human NCI-H226 cells assessed as growth inhibition after 48 hrs by sulforhodamine B assay; conditions: NCI-H226, 48 h
NCI-H23 = assay: Cytotoxicity against human NCI-H23 cells assessed as growth inhibition after 48 hrs by sulforhodamine B assay; conditions: NCI-H23, 48 h; for CC50: read-out: LC50 (the source's name)
COLO 205 = assay: Cytotoxicity against human COLO205 cells assessed as growth inhibition after 48 hrs by sulforhodamine B assay; conditions: COLO 205, 48 h
HCC 2998 = assay: Cytotoxicity against human HCC2998 cells assessed as growth inhibition after 48 hrs by sulforhodamine B assay; conditions: HCC 2998, 48 h
HCT-116 = assay: Cytotoxicity against human HCT116 cells assessed as growth inhibition after 48 hrs by sulforhodamine B assay; conditions: HCT-116, 48 h
HCT-15 = assay: Cytotoxicity against human HCT15 cells assessed as growth inhibition after 48 hrs by sulforhodamine B assay; conditions: HCT-15, 48 h
KM12 = assay: Cytotoxicity against human KM12 cells assessed as growth inhibition after 48 hrs by sulforhodamine B assay; conditions: KM12, 48 h
SW-620 = assay: Cytotoxicity against human SW620 cells assessed as growth inhibition after 48 hrs by sulforhodamine B assay; conditions: SW-620, 48 h
U-251 = assay: Cytotoxicity against human U251 cells assessed as growth inhibition after 48 hrs by sulforhodamine B assay; conditions: U-251, 48 h
Malme-3M = assay: Cytotoxicity against human MALME-3M cells assessed as growth inhibition after 48 hrs by sulforhodamine B assay
M14 = assay: Cytotoxicity against human M14 cells assessed as growth inhibition after 48 hrs by sulforhodamine B assay; conditions: M14, 48 h; for CC50: read-out: LC50 (the source's name)
MDA-MB-435 = assay: Cytotoxicity against human MDA-MB-435 cells assessed as growth inhibition after 48 hrs by sulforhodamine B assay; conditions: MDA-MB-435, 48 h
SK-MEL-5 = assay: Cytotoxicity against human SK-MEL-5 cells assessed as growth inhibition after 48 hrs by sulforhodamine B assay; conditions: SK-MEL-5, 48 h; for CC50: read-out: LC50 (the source's name)
UACC-257 = assay: Cytotoxicity against human UACC257 cells assessed as growth inhibition after 48 hrs by sulforhodamine B assay; conditions: UACC-257, 48 h
UACC-62 = assay: Cytotoxicity against human UACC62 cells assessed as growth inhibition after 48 hrs by sulforhodamine B assay; conditions: UACC-62, 48 h
IGROV-1 = assay: Cytotoxicity against human IGROV1 cells assessed as growth inhibition after 48 hrs by sulforhodamine B assay; conditions: IGROV-1, 48 h
OVCAR-3 = assay: Cytotoxicity against human OVCAR3 cells assessed as growth inhibition after 48 hrs by sulforhodamine B assay; conditions: OVCAR-3, 48 h
OVCAR-5 = assay: Cytotoxicity against human OVCAR5 cells assessed as growth inhibition after 48 hrs by sulforhodamine B assay; conditions: OVCAR-5, 48 h
OVCAR-8 = assay: Cytotoxicity against human OVCAR8 cells assessed as growth inhibition after 48 hrs by sulforhodamine B assay; conditions: OVCAR-8, 48 h
NCI/ADR-RES = assay: Cytotoxicity against human NCI-ADR-RES cells assessed as growth inhibition after 48 hrs by sulforhodamine B assay; conditions: for CC50: read-out: LC50 (the source's name)
RXF 393 = assay: Cytotoxicity against human RXF393 cells assessed as growth inhibition after 48 hrs by sulforhodamine B assay; conditions: RXF 393, 48 h
PC-3 = assay: Cytotoxicity against human PC3 cells assessed as growth inhibition after 48 hrs by sulforhodamine B assay; conditions: PC-3, 48 h
DU-145 = assay: Cytotoxicity against human DU145 cells assessed as growth inhibition after 48 hrs by sulforhodamine B assay; conditions: DU-145, 48 h
MDA-MB-231 = assay: Cytotoxicity against human MDA-MB-231 cells assessed as growth inhibition after 48 hrs by sulforhodamine B assay; conditions: MDA-MB-231, 48 h
BT-549 = assay: Cytotoxicity against human BT549 cells assessed as growth inhibition after 48 hrs by sulforhodamine B assay; conditions: BT-549, 48 h
T47D = assay: Cytotoxicity against human T47D cells assessed as growth inhibition after 48 hrs by sulforhodamine B assay

## O=C1NC2C(CC(O)C(O)C2O)c2cc3c(c(O)c21)OCO3 (racemic)
CCRF-CEM
  GI50: 52.9 nM
  TGI: 2150 nM
K562
  GI50: 52.9 nM
  TGI: > 100000 nM
  CC50: > 100000 nM
RPMI-8226
  GI50: 229 nM
  TGI: 630 nM
SR
  GI50: 52.2 nM
  TGI: > 100000 nM
  CC50: > 100000 nM
A549
  GI50: 139 nM
  TGI: 1160 nM
  CC50: > 100000 nM
HOP-62
  GI50: 56.8 nM
  TGI: 420 nM
  CC50: > 100000 nM
NCI-H226
  GI50: 61.7 nM
  TGI: 590 nM
NCI-H23
  GI50: 74.4 nM
  TGI: 520 nM
  CC50: > 100000 nM
COLO 205
  GI50: 50.5 nM
  TGI: 210 nM
HCC 2998
  GI50: 57.2 nM
  TGI: 330 nM
HCT-116
  GI50: 40.4 nM
  TGI: 1130 nM
HCT-15
  GI50: 85.7 nM
  TGI: 1110 nM
KM12
  GI50: 44.5 nM
  TGI: 320 nM
SW-620
  GI50: 54.5 nM
  TGI: 810 nM
U-251
  GI50: 45.2 nM
  TGI: 1010 nM
Malme-3M
  GI50: 85.9 nM
  TGI: 390 nM
M14
  GI50: 52.5 nM
  TGI: 220 nM
  CC50: 700 nM
MDA-MB-435
  GI50: 68.1 nM
  TGI: 510 nM
SK-MEL-5
  GI50: 71.9 nM
  TGI: 360 nM
  CC50: 2220 nM
UACC-257
  GI50: 68.7 nM
  TGI: 540 nM
UACC-62
  GI50: 136 nM
  TGI: 630 nM
IGROV-1
  GI50: 163 nM
  TGI: 1110 nM
OVCAR-3
  GI50: 93.3 nM
  TGI: 480 nM
OVCAR-5
  GI50: 170 nM
  TGI: 1050 nM
OVCAR-8
  GI50: 57.6 nM
  TGI: 1060 nM
NCI/ADR-RES
  GI50: 178 nM
  TGI: 1560 nM
  CC50: > 100000 nM
RXF 393
  GI50: 118 nM
  TGI: 510 nM
PC-3
  GI50: 164 nM
  TGI: 850 nM
DU-145
  GI50: 56.7 nM
  TGI: 620 nM
MDA-MB-231
  GI50: 100 nM
  TGI: 880 nM
BT-549
  GI50: 178 nM
  TGI: 820 nM
T47D
  GI50: 52.9 nM
  TGI: 670 nM

## O=C1NC2C(CC(O)C(O)C2O)c2cc3c(c(O)c21)OCCO3 (racemic)
CCRF-CEM
  GI50: 73.7 nM
  LC50 (concentration giving 50% net cell kill): > 100000 nM
  TGI: 1830 nM
K562
  GI50: 126 nM
  TGI: 10700 nM
  CC50: > 100000 nM
RPMI-8226
  GI50: 265 nM
  LC50: > 100000 nM
  TGI: 1140 nM
SR
  GI50: 314 nM
  TGI: 36800 nM
  CC50: > 100000 nM
A549
  GI50: 355 nM
  TGI: 8530 nM
  CC50: > 100000 nM
HOP-62
  GI50: 255 nM
  TGI: 910 nM
  CC50: 7270 nM
NCI-H226
  GI50: 220 nM
  LC50: 79800 nM
  TGI: 730 nM
NCI-H23
  GI50: 214 nM
  TGI: 870 nM
  CC50: > 100000 nM
COLO 205
  GI50: 176 nM
  TGI: 410 nM
HCC 2998
  GI50: 222 nM
  LC50 (concentration killing 50% of cells): 6310 nM
  TGI: 730 nM
HCT-116
  GI50: 77.7 nM
  LC50: > 100000 nM
  TGI: 1310 nM
HCT-15
  GI50: 280 nM
  LC50 (50% lethal concentration): > 100000 nM
  TGI: 1910 nM
KM12
  GI50: 187 nM
  LC50: > 100000 nM
  TGI: 1210 nM
SW-620
  GI50: 222 nM
  LC50: > 100000 nM
  TGI: 1220 nM
U-251
  GI50: 243 nM
  LC50: > 100000 nM
  TGI: 14500 nM
Malme-3M
  GI50: 190 nM
  LC50: 5200 nM
  TGI: 710 nM
M14
  GI50: 230 nM
  TGI: 1190 nM
  CC50: 5530 nM
MDA-MB-435
  GI50: 265 nM
  LC50 (concentration killing 50% of cells): 13300 nM
  TGI: 1170 nM
SK-MEL-5
  GI50: 181 nM
  TGI: 470 nM
  CC50: 2220 nM
UACC-257
  GI50: 289 nM
  LC50: > 100000 nM
  TGI: 1470 nM
UACC-62
  GI50: 261 nM
  LC50: 13000 nM
  TGI: 1380 nM
IGROV-1
  GI50: 343 nM
  LC50: > 100000 nM
  TGI: 2680 nM
OVCAR-3
  GI50: 280 nM
  LC50: > 100000 nM
  TGI: 960 nM
OVCAR-5
  GI50: 361 nM
  LC50: > 100000 nM
  TGI: 2860 nM
OVCAR-8
  GI50: 311 nM
  LC50: > 100000 nM
  TGI: 5890 nM
NCI/ADR-RES
  GI50: 596 nM
  TGI: 5850 nM
  CC50: > 100000 nM
RXF 393
  GI50: 179 nM
  LC50 (50% lethal concentration): 6300 nM
  TGI: 710 nM
PC-3
  GI50: 299 nM
  LC50: > 100000 nM
  TGI: 2140 nM
DU-145
  GI50: 239 nM
  LC50: > 100000 nM
  TGI: 860 nM
MDA-MB-231
  GI50: 232 nM
  LC50: 13200 nM
  TGI: 1160 nM
BT-549
  GI50: 260 nM
  LC50 (concentration killing 50% of cells): > 100000 nM
  TGI: 870 nM
T47D
  GI50: 143 nM
  LC50 (concentration killing 50% of cells): > 100000 nM
  TGI: 900 nM
